Target: T1, α4β7-MAdCAM (Homo sapiens, UniProt P13612+P26010)
T1 construct: endogenous in cells; host or cells: RPMI 8866 cells (human B lymphoid cell line)
T1 sequence (P13612 34-1032): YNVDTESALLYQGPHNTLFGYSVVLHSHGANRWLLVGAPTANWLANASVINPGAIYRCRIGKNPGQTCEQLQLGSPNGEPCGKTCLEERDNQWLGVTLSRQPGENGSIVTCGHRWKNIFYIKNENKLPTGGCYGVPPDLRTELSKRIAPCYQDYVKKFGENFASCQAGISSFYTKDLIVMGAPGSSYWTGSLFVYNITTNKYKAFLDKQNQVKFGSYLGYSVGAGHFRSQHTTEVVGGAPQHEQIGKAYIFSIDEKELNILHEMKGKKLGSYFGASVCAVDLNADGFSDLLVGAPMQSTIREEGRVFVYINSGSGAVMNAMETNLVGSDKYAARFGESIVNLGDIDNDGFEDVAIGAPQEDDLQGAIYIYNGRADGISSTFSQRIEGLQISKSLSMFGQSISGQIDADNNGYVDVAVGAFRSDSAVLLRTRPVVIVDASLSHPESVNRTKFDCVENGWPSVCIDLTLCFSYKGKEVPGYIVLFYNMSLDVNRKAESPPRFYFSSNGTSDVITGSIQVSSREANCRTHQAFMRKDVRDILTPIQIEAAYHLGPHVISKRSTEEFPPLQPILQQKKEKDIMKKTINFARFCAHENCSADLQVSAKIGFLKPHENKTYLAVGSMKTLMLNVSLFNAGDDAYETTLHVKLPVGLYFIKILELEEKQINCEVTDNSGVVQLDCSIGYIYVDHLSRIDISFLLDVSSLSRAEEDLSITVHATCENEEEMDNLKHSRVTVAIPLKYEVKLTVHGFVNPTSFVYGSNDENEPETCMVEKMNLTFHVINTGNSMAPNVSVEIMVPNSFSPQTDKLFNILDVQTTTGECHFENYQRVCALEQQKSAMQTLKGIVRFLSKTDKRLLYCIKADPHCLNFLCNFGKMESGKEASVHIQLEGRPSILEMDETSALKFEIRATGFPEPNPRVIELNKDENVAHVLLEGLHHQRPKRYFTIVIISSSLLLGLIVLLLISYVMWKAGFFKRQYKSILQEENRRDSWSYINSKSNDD
T1 sequence (P26010 20-798): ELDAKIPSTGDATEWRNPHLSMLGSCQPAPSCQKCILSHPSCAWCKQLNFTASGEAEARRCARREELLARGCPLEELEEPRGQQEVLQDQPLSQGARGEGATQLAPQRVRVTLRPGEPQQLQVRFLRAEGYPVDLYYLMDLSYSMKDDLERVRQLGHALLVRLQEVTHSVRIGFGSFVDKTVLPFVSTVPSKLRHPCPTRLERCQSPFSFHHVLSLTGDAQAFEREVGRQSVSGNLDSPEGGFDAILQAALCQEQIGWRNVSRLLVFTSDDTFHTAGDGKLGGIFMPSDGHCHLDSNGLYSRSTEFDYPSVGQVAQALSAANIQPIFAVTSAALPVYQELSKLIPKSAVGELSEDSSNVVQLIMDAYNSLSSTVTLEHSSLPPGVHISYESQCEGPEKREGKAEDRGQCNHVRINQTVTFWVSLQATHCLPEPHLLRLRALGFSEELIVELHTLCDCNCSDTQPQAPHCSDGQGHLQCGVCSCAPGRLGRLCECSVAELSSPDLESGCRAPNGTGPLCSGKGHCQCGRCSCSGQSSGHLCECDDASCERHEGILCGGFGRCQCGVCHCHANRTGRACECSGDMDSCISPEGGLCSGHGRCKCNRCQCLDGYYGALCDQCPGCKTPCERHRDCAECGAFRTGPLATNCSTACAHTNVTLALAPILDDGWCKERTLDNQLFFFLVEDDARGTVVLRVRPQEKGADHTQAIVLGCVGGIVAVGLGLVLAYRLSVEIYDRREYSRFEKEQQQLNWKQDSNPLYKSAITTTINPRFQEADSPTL
Assay: MAdCAM cell adhesion assay, RPMI 8866 cells
Type: cell-based
Details: RPMI 8866 cells to MAdCAM; read-out: Inhibition of cell adhesion (IC50)
Protocol: Jurkat J6 cells (human lymphoblast cell line) were grown as a suspension culture in RPMI 1640 supplemented with FCS (10%) and glutamine (2 mM). RPMI8866 cells (human B lymphoid cell line) were grown as a suspension culture in RPMI 1640 supplemented with FCS (10%) and glutamine (2 mM). RBL-2H3 cells (rat basophilic cell line) were cultured in Eagle's MEM plus Earles salts supplemented with 2 mM L-glutamine, 1 mM sodium pyruvate, 1× non-essential amino acids, 1 mM Na pyruvate 10% heat inactivated foetal calf serum.
Polystyrene 96-well microtitre plates were coated with IgG at a concentration of 0.05 mg/mL in bicarbonate buffer for 2.5 hours at 37° C. The solution was aspirated and the plates washed twice with PBS. The plates were then incubated overnight at 4° C. with MAdCAM at a concentration of 204.0 ng/mL in 3% BSA in PBS. Prior to use the MAdCAM was aspirated and the plates washed twice with PBS. J6 or RPMI cells (as required) were labelled with the fluorescent dye BCECF-AM (10 μM and 6×10^6 cells/mL) for 10 min at 37° C. before the excess was removed by centrifugation at 500 g for 5 min and the cells resuspended at a cell concentration of 1.2×10^7 cells/mL in HBSS. Equal volumes of HBSS containing the compound of formula I (over concentration range 38.1 pM to 10 μM) and cells were added to the MAdCAM coated plates. […] The plates were counted in a Wallac Viktor.

**Q.** `Cc1ccccc1OCC(=O)N[C@@H](CC(C)C)C(=O)N[C@@H](Cc1ccc(OC(=O)N2CCC(C(N)=O)CC2)cc1)C(=O)O` [GW559090, (2S)-3-[4-({[4-(Aminocarbonyl)-1-piperidinyl]carbonyl}oxy)phenyl]-2-[((2S)-4-methyl-2-{[2-(2-methylphenoxy)acetyl]amino}pentanoyl)amino]propanoic acid] was tested. Which IC50 did it give?
**A.** 23 nM

From patent US10413535B2, “Pharmaceutical compositions comprising an integrin ALPHA4 antagonist for use in treating ocular inflammatory conditions” (AXEROVISION, INC., priority 2015, dated 2019)
